According to patent EP4202440A1, “PROTEOMICS-BASED STRATIFICATION OF ACUTE MYELOID LEUKAEMIA” (Max-Planck-Gesellschaft zur Förderung der Wissenschaften …, priority 2021, dated 2023):

Experiments:
AML cell lines [1] = experiment: Cell viability assay (MTT dye reduction), Mito-high versus Mito-low AML cell lines; format: cell-based, Human; details: 96 h incubation, Mito AML cell lines (n=9) vs non-Mito AML cell lines (n=10), Wilcoxon rank sum test, Figure 6D
Source text: Human AML cell lines including THP-1 (DSMZ no. ACC16; […]), OCI-AML2 (DSMZ No. ACC 99; FAB M4), OCI-AML3 (DSMZ No. ACC 582; FAB M4), Molm13 (DSMZ No. ACC 554; FAB […]), PL-21 (DSMZ No. ACC 536; FAB M3), HL-60 (DSMZ No. ACC 3; FAB M2), MV4-11 (DSMZ No. ACC 102; FAB M5), SIG-M5 (DSMZ No. ACC 468; FAB […]), ML2 (DSMZ No. ACC 15; FAB M4), NB4 (DSMZ No. ACC 207; FAB M3), KG1 (DSMZ No. ACC 14; FAB not indicated), KG-1a (DSMZ No. ACC 421; FAB not indicated), U-937 (DSMZ No. ACC 5, FAB not indicated), Kasumi-1 (DSMZ No. ACC 220, FAB M2), EOL-1 (DSMZ No. ACC 386, FAB not indicated), OCI-AML5 (DSMZ No. ACC 247, FAB M4), UT-7 (DSMZ No. ACC 137, FAB M7), SET-2 (DSMZ No. ACC 608, FAB no indicated), MonoMac6 (DSMZ No. ACC 124; FAB M5) and HEL (DSMZ No. ACC 11; FAB M6) were obtained from DSMZ (Deutsche Sammlung von Mikroorganismen und Zellkulturen GmbH). THP-1, OCI-AML2, OCI-AML3, Molm13, PL-21, HL-60, MV4-11, SIG-M5, ML2, NB4, KG1, KG-1a, U-937, EOL-1, SET-2, MonoMac6 and HEL were cultured in RPMI 1640 (ThermoFisher, Cat. No. 11875093), supplemented with 20% FBS, 4 mM L-glutamine, 100 IU/ml penicillin and […] streptomycin. Kasumi-1 and OCI-AML5 were cultured in Advanced RPMI (ThermoFisher, Cat. No. 12633012) supplemented with 5% FBS, 4 mM L-glutamine, 100 IU/ml penicillin and […] streptomycin. […] IC50 values were determined using the R package "drc" v3.0-1 (Ritz et al., 2015). […]

AML cell lines [2] = experiment: Seahorse analysis: complex I dependency of respiration after rotenone, cell lines
primary patient samples = experiment: Seahorse analysis: complex I dependency of respiration after rotenone, primary patient samples

Row | Compound | half-maximum inhibitory concentration (IC50): in vitro sensitivity of Mito-high and -low cell lines (AML cell lines [1]) | Complex I dependency (percentage of basal oxygen consumption rate after inhibition with rotenone) (AML cell lines [2]) | Complex I dependency (percentage of basal oxygen consumption rate after inhibition with rotenone) (primary patient samples)
1 | FC(F)(F)c1ccc(/C=C/c2nc(COc3ccc(CCCCn4ccnn4)cc3)co2)cc1 [mubritinib, Mubritinib] | significant hypersensitivity | – | –
2 | C=C(C)[C@H]1Cc2c(ccc3c2O[C@@H]2COc4cc(OC)c(OC)cc4[C@@H]2C3=O)O1 [rotenone, Rotenone] | – | significantly stronger Complex I dependency | significantly stronger Complex I dependency
